Laboratory results from paper PMC6646960 (ACS Chemical Biology, 2019).

Molecular target: T1, DC-SIGN (Homo sapiens, UniProt Q9NNX6)
T1 sequence (Q9NNX6 254-404): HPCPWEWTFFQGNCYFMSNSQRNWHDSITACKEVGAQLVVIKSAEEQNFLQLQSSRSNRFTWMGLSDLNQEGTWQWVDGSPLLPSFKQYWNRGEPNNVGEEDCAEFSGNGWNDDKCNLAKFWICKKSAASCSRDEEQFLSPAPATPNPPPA
Assay: 1H-15N HSQC NMR titration
Assay type: binding

For `C[C@@H]1OC(O)[C@@H](O)[C@H](O)[C@@H]1O` (stereo partly shown) [compound 4, Fuc], the Kd was 4.1 ± 0.7 mM.
